Where “and” joins values, the source holds several entries; their conditions need not be identical. Equal entries are not always repeated. Where two headings read alike, the source gives them in different places.
Legend:
[1] = tested on: Rat2 fibroblasts stably transformed with v-Src/Hu c-Src fusion gene; assay: Anchorage independent Src-transformed fibroblast proliferation assay; type: cell-based, rat
Procedure: Anchorage Independent Src-Transformed Fibroblast Proliferation Assay Rat2 fibroblasts stably transformed with a plasmid containing a CMV promotor controlled v-Src/Hu c-Src fusion gene in which the catalytic domain of human c-Src was inserted in place of the v-Src catalytic domain in the v-Src gene are used for the measurement of src dependent suspension growth. […] Multiple entries for a given compound indicate that it was tested multiple times.

[2] = target: T1, Recombinant human Src enzyme (Homo sapiens, UniProt P12931); assay: Src kinase assay (LANCE FRET); type: biochemical; conditions: Table 3; 100 μM ATP, biotinylated Cdk1 peptide substrate
T1 construct: purchased PanVera P3044
T1 sequence (P12931 whole entry): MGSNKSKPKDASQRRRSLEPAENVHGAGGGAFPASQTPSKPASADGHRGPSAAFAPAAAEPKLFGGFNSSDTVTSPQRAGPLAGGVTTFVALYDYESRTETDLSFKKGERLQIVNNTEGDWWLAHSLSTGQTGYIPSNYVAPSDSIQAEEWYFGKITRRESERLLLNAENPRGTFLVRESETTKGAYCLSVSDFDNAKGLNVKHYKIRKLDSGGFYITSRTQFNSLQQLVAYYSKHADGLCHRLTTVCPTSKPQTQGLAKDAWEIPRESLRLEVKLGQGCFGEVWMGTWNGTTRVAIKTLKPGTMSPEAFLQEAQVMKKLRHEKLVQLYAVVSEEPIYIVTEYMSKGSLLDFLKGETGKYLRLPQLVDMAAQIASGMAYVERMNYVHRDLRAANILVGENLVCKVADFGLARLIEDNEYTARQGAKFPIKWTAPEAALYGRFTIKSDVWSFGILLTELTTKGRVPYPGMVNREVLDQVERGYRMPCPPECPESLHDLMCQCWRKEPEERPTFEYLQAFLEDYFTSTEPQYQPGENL
Procedure: Recombinant human Src enzyme was obtained from PanVera (P3044). […] Homogeneous fluorescence resonance energy transfer kinase assays were performed using the europium/APC detection format (LANCE, Perkin Elmer). Src enzyme (10 ng) was mixed with biotinylated peptide (final concentration 2 μM), 50 mM Hepes (pH 7.5), 10 mM MgCl2, 20 μg/ml BSA, 0.001% Brij-35 (sigma), 100 μM ATP, 1% DMSO. The kinase reaction was incubated for 70 min at 37° C. The reaction was stopped with EDTA at a final concentration of 30 mM EDTA/25 mM Hepes (pH 7.5)/10 μg/ml BSA. The mixture was combined with Eu-labeled anti-phosphotyrosine antibody PT66 (Perkin Elmer, AD0068) and Streptavidin Surelight-APC (Perkin Elmer, CR130-100) in 50 mM Hepes (pH 7.5)/20 μg/ml BSA, and incubated for 30 min according to manufacturer's specifications. […] Multiple entries for a given compound indicate that it was tested multiple times.

[3] = target: T2, Rat2 fibroblasts stably transformed with v-Src/Hu Lck fusion gene (Homo sapiens, UniProt P06239, cells depend on it, form not given); assay: Anchorage independent Lck-transformed fibroblast proliferation assay; type: cell-based, rat
T2 construct: Candidates are e.g. Schmidt-Ruppin A (P00524) or Prague C (P00526); The human Lck catalytic domain stands in place of the v-Src catalytic domain
T2 sequence (P06239 whole entry, change not shown, the tested form may be a part): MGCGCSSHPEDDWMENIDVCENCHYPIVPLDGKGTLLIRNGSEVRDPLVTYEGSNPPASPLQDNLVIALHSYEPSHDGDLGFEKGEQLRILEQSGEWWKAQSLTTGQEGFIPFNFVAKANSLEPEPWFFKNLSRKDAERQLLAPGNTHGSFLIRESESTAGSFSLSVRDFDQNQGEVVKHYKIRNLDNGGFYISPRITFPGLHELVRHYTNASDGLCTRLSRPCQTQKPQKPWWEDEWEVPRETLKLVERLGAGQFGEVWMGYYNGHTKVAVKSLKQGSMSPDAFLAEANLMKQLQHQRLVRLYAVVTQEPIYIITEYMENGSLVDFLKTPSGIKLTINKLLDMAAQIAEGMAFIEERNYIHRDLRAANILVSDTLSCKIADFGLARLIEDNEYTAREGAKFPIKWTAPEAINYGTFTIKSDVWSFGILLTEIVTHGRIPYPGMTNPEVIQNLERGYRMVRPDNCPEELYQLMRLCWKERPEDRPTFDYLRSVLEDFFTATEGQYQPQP
Procedure: Anchorage Independent Lck-Transformed Fibroblast Proliferation Assay
Rat2 fibroblasts stably transformed with a plasmid containing a CMV promotor controlled v-Src/Hu Lck fusion gene in which the catalytic domain of human Lck was inserted in place of the v-Src catalytic domain in the v-Src gene are used for the measurement of src dependent suspension growth. Ultra-low cluster plates (Costar # 3474) are seeded with 10,000 cells per well on Day 1. Compound is added in serial two-fold dilutions from 10 micromolar to 0.009 micromolar on Day 2 and MTS reagent (Promega) is added on Day 5 (100 microliters of MTS/medium mix+100 microliters of medium already on the cells and the absorbance is measured at 490 nm. The results are analyzed as follows to yield an IC50 for proliferation (micromolar units) as follow: % inhibition=(Abs490 nm sample−blank)/(Abs490 nm no cmpd control−blank)×100%. The results obtained for representative compounds of this invention are listed in Table 2. Multiple entries for a given compound indicate that it was tested multiple times.

[4] = Rattus norvegicus, Rat2, Table 3, read-out: Src Cells IC50 μM or % inhib at 10 μM (IC50 values)
[5] = Table 3, read-out: Src Cells IC50 μM or % inhib at 10 μM (IC50 values)
[6] = Table 3, read-out: Lck Cells IC50
[7] = Rattus norvegicus, Rat2, read-out: Src Cells IC50 μM or % inhib at 10 μM (IC50 values), Table 3
[8] = read-out: Src Cells IC50 μM or % inhib at 10 μM (IC50 values), Table 3

IC50 [2]	GI50 [3, 6]	melting point	GI50 ([3]; Table 2, suspension growth, MTS readout Day 5, read-out: Lck cells IC50)	Structure (SMILES)	IC50 [1, 4]	IC50 [1, 5]	IC50 [1, 7]	IC50 [1, 8]	IC50 ([1]; Rattus norvegicus, Rat2, 120 h, Table 1, suspension growth, MTS readout Day 5, read-out: Src cells IC50)	IC50 ([1]; Table 1, suspension growth, MTS readout Day 5, read-out: Src cells IC50)
10 nM and 12 nM	252 nM and 235 nM	167 to 169 °C		CCCCNCc1ccc(-c2cc3ncc(C#N)c(Nc4cc(OC)c(Cl)cc4Cl)c3s2)cc1 [Example 104, 2-{4-[(butylamino)methyl]phenyl}-7-[(2,4-dichloro-5-methoxyphenyl)amino]thieno[3,2-b]pyridine-6-carbonitrile]	0.837 µM	0.939 µM				
26.3 nM and 34.7 nM	320 nM and 270 nM	204 to 206 °C		COc1cc(Nc2c(C#N)cnc3cc(-c4cccc(CN(C)C)c4)sc23)c(Cl)cc1Cl [Example 75, 7-[(2,4-dichloro-5-methoxyphenyl)amino]-2-{3-[(dimethylamino)methyl]phenyl}thieno[3,2-b]pyridine-6-carbonitrile]	1.5 µM	0.97 µM				
10 nM and 6.6 nM	103 nM and 95 nM and 58 nM and 71 nM	160 to 162 °C		CCN(CC)Cc1ccc(-c2cc3ncc(C#N)c(Nc4cc(OC)c(Cl)cc4Cl)c3s2)cc1 [Example 106, 7-[(2,4-dichloro-5-methoxyphenyl)amino]-2-{4-[(diethylamino)methyl]phenyl}thieno[3,2-b]pyridine-6-carbonitrile]						
16 nM	283 nM and 428 nM			COc1cc(Nc2c(C#N)cnc3cc(-c4ccc(CN5CCS(=O)(=O)CC5)cc4)sc23)c(Cl)cc1Cl [Example 111, 7-[(2,4-dichloro-5-methoxyphenyl)amino]-2-{4-[(1,1-dioxidothiomorpholin-4-yl)methyl]phenyl}thieno[3,2-b]pyridine-6-carbonitrile]	0.572 µM	0.411 µM				
8.4 nM and 8.3 nM and 6.9 nM and 5.3 nM	193 nM and 133 nM and 168 nM	218 to 220 °C		COc1cc(Nc2c(C#N)cnc3cc(-c4ccc(CN5CCNCC5)cc4)sc23)c(Cl)cc1Cl [Example 95, 7-[(2,4-dichloro-5-methoxyphenyl)amino]-2-[4-(piperazin-1-ylmethyl)phenyl]thieno[3,2-b]pyridine-6-carbonitrile]						
9.4 nM and 15 nM	120 nM and 77 nM			COc1cc(Nc2c(C#N)cnc3cc(-c4ccc(CN(C)CCN(C)C)cc4)sc23)c(Cl)cc1Cl [Example 72, 7-[(2,4-dichloro-5-methoxyphenyl)amino]-2-(4-{[[2-(dimethylamino)ethyl](methyl)amino]methyl}phenyl)thieno[3,2-b]pyridine-6-carbonitrile]	1.3 µM	0.7 µM				
	82 nM and 97 nM	192 to 193 °C		CCN(CC)Cc1ccc(-c2cc3ncc(C#N)c(Nc4cc(OC)c(Cl)cc4Cl)c3s2)nc1 [Example 133, 7-[(2,4-dichloro-5-methoxyphenyl)amino]-2-{5-[(diethylamino)methyl]pyridin-2-yl}thieno[3,2-b]pyridine-6-carbonitrile]	0.436 µM	0.289 µM				
18 nM and 23 nM	897 nM and 1080 nM and 1560 nM	211 to 213 °C		COc1cc(Nc2c(C#N)cnc3cc(-c4ccc(CN5CCN(S(C)(=O)=O)CC5)cc4)sc23)c(Cl)cc1Cl [Example 122, 7-[(2,4-dichloro-5-methoxyphenyl)amino]-2-(4-{[4-(methylsulfonyl)piperazin-1-yl]methyl}phenyl)thieno[3,2-b]pyridine-6-carbonitrile]						

The remaining lines, values behind:

Structure (SMILES)	IC50 [2]	GI50 [3, 6]	melting point	GI50 ([3]; Table 2, suspension growth, MTS readout Day 5, read-out: Lck cells IC50)	IC50 [1, 4]	IC50 [1, 5]	IC50 [1, 7]	IC50 [1, 8]	IC50 ([1]; Rattus norvegicus, Rat2, 120 h, Table 1, suspension growth, MTS readout Day 5, read-out: Src cells IC50)	IC50 ([1]; Table 1, suspension growth, MTS readout Day 5, read-out: Src cells IC50)
COc1cc(Nc2c(C#N)cnc3cc(-c4ccc(CCN(C)C)cc4)sc23)c(Cl)cc1Cl [Example 134, 7-[(2,4-dichloro-5-methoxyphenyl)amino]-2-{4-[2-(dimethylamino)ethyl]phenyl}thieno[3,2-b]pyridine-6-carbonitrile]	7.6 nM and 10 nM	130 nM and 170 nM	196 to 197 °C				0.505 µM	0.337 µM		
COc1cc(Nc2c(C#N)cnc3cc(-c4ccsc4CN4CCN(C)CC4)sc23)c(Cl)cc1Cl [Example 84, 7-[(2,4-dichloro-5-methoxyphenyl)amino]-2-{2-[(4-methylpiperazin-1-yl)methyl]thien-3-yl}thieno[3,2-b]pyridine-6-carbonitrile]	320 nM and 580 nM and 347 nM	3400 nM	218 to 219 °C				3.3 µM			
COc1cc(Nc2c(C#N)cnc3cc(-c4ccc(N(C)C)cc4)sc23)c(Cl)cc1Cl [Example 73, 7-[(2,4-dichloro-5-methoxyphenyl)amino]-2-[4-(dimethylamino)phenyl]thieno[3,2-b]pyridine-6-carbonitrile]	120 nM and 94 nM	1200 nM and 1100 nM	255 to 258 °C				1.4 µM	1.1 µM		
COc1cc(Nc2c(C#N)cnc3cc(-c4ccc(CN5CCOCC5)cn4)sc23)c(Cl)cc1Cl [Example 108, 7-[(2,4-dichloro-5-methoxyphenyl)amino]-2-[5-(morpholin-4-ylmethyl)pyridin-2-I]thieno[3,2-b]pyridine-6-carbonitrile]	13 nM and 12 nM	201 nM and 240 nM	227 to 229 °C		0.474 µM	0.319 µM				
COc1cc(Nc2c(C#N)cnc3c(-c4ccc(CN(C)C)cc4)csc23)c(Cl)cc1Cl [Example 141, 7-[(2,4-Dichloro-5-methoxyphenyl)amino]-3-{4-[(dimethylamino)methyl]phenyl}thieno[3,2-b]pyridine-6-carbonitrile]	4350 nM and 5040 nM	3180 nM and 4240 nM	201 to 202 °C		4.52 µM	4.11 µM				
COc1cc(Nc2c(C#N)cnc3cc(-c4ccc(CN5CCN(C)CC5)cn4)sc23)c(Cl)cc1Cl [Example 103, 7-[(2,4-dichloro-5-methoxyphenyl)amino]-2-{5-[(4-methylpiperazin-1-yl)methyl]pyridin-2-yl}thieno[3,2-b]pyridine-6-carbonitrile]	11 nM and 9.6 nM	58 nM and 71 nM	229 to 232 °C		0.401 µM	0.445 µM				
COc1cc(Nc2c(C#N)cnc3cc(-c4ccc(CN5CCSCC5)cc4)sc23)c(Cl)cc1Cl [Example 94, 7-[(2,4-dichloro-5-methoxyphenyl)amino]-2-[4-(thiomorpholin-4-ylmethyl)phenyl]thieno[3,2-b]pyridine-6-carbonitrile]	58 nM and 46 nM	932 nM and 907 nM and 1170 nM	198 to 201 °C				5.52 µM	2.92 µM and 3.17 µM		
CCOc1cc(Nc2c(C#N)cnc3cc(-c4ccc(CN5CCN(C)CC5)cc4)sc23)c(Cl)cc1Cl [Example 123, 7-[(2,4-dichloro-5-ethoxyphenyl)amino]-2-{4-[(4-methylpiperazin-1-yl)methyl]phenyl}thieno[3,2-b]pyridine-6-carbonitrile]	943 nM and 1020 nM	3230 nM and 4690 nM	227 to 229 °C				> 10 µM			
COc1cc(Nc2c(C#N)cnc3cc(-c4cccc(CN(C)C)n4)sc23)c(Cl)cc1Cl [Example 128, 7-[(2,4-dichloro-5-methoxyphenyl)amino]-2-{6-[(dimethylamino)methyl]pyridin-2-yl}thieno[3,2-b]pyridine-6-carbonitrile]	66 nM and 69 nM	539 nM and 557 nM	221 to 223 °C							
COc1cc(Nc2c(C#N)cnc3cc(-c4ccc(CN(C)C)cc4)sc23)cc(OC)c1OC [Example 61, 2-{4-[(Dimethylamino)methyl]phenyl}-7-[(3,4,5-trimethoxyphenyl)amino]thieno[3,2-b]pyridine-6-carbonitrile]			199 to 201 °C	17 nM and 15 nM and 14 nM					0.217 µM	0.279 µM

— patent US7276519B2, “Thieno[3,2-b]pyridine-6-carbonitriles and thieno[2,3-b]pyridine-5-carbonitriles as protein kinase inhibitors” (Wyeth, priority 2002, dated 2007)
